This note sets out measurements from ChEMBL document CHEMBL6109086, “Discovery and biological evaluation of hederagenin derivatives as non-substrate inhibitors of P-glycoprotein-mediated multidrug resistance” (Eur J Med Chem, 2025).

What is called IC50 is the concentration needed to halve the response being measured. Higher therefore signals lower potency.

Assay [1] can be described thus: Cytotoxicity against human KBV cells assessed as paclitaxel induced cytotoxicity by measuring cell survival at 10 uM measured after 72 hrs by MTT assay relative to control. The assay is classed as functional. (Formazan colour is commonly taken as a measure of viable cells.)
Assay [2] can be described thus: Reversal of multi-drug resistance in human KBV cells assessed as paclitaxel induced cytotoxicity by measuring cell survival at 10 uM measured after 72 hrs by MTT assay relative to control. The assay is classed as functional.
Assay [3] in a line: Sensitization of paclitaxel-induced cytotoxicity against human KBV cells assessed as fold change in paclitaxel IC50 at 2.5 uM incubated for 72 hrs by MTT assay relative to paclitaxel alone. The assay is classed as functional.
The nature of assay [4]: Sensitization of vincristine -induced cytotoxicity against human KBV cells assessed as fold change in vincristine IC50 at 5 uM incubated for 72 hrs by MTT assay relative to vincristine alone. The assay is classed as functional.
Assay [5] in a line: Sensitization of paclitaxel-induced cytotoxicity against human KBV cells assessed as fold change in paclitaxel IC50 at 5 uM incubated for 72 hrs by MTT assay relative to paclitaxel alone. The assay is classed as functional.
Assay [6] can be described thus: Sensitization of vincristine -induced cytotoxicity against human KBV cells assessed as fold change in vincristine IC50 at 10 uM incubated for 72 hrs by MTT assay relative to vincristine alone. Type of assay: functional.
Assay [7] can be described thus: Sensitization of paclitaxel-induced cytotoxicity against human KBV cells assessed as fold change in paclitaxel IC50 at 10 uM incubated for 72 hrs by MTT assay relative to paclitaxel alone. The assay is classed as functional.
Assay [8] in a line: Sensitization of vincristine -induced cytotoxicity against human KBV cells assessed as fold change in vincristine IC50 at 2.5 uM incubated for 72 hrs by MTT assay relative to vincristine alone. The assay is classed as functional.
A short description of assay [9]: Cytotoxicity against human KBV cells incubated for 72 hrs by MTT assay. Type of assay: functional, cell-based.

As to `CC1(C)CC[C@]2(C(=O)OCC(=O)NCc3cccs3)CC[C@]3(C)C(=CC[C@@H]4[C@@]5(C)Cc6nccnc6[C@@](C)(CO)[C@@H]5CC[C@]43C)[C@@H]2C1`, the Activity is recorded as 54.97% in assay [1] and 25.86% in [2].
For the molecule `CC1(C)CC[C@]2(C(=O)OCC(=O)NCC3CCOCC3)CC[C@]3(C)C(=CC[C@@H]4[C@@]5(C)Cc6nccnc6[C@@](C)(CO)[C@@H]5CC[C@]43C)[C@@H]2C1`, the Activity in assay [1] is recorded as 78.91%; in assay [2] it was 30.34%.
For the molecule `O[C@@H](COc1cccc2ncccc12)CN1CCN([C@@H]2c3ccccc3[C@@H]3[C@H](c4ccccc42)C3(F)F)CC1` [ZOSUQUIDAR], the “fold change (FC)” value stood at 45.38 in [3]; 33.85 in assay [4]; 133.98 in [5]; 721.86 in [6]; 449.19 in assay [7]; 9.01 in [8].
For the molecule `COC(=O)[C@H](CCSC)NC(=O)COC(=O)[C@]12CCC(C)(C)C[C@H]1C1=CC[C@@H]3[C@@]4(C)Cc5nccnc5[C@@](C)(CO)[C@@H]4CC[C@@]3(C)[C@]1(C)CC2`, the Activity in assay [1] worked out at 79.95%; in assay [2], 37.17%.
Turning to `CC(C)[C@H](N)C(=O)N[C@H](C(=O)NCCNC(=O)[C@]12CCC(C)(C)C[C@H]1C1=CC[C@@H]3[C@@]4(C)Cc5nccnc5[C@@](C)(CO)[C@@H]4CC[C@@]3(C)[C@]1(C)CC2)C(C)C`, the Activity in [1] was found to be 87.47%; in assay [2], 89.43%.
With `CC1(C)CC[C@]2(C(=O)NCC(=O)OCCOCCO)CC[C@]3(C)C(=CC[C@@H]4[C@@]5(C)Cc6nccnc6[C@@](C)(CO)[C@@H]5CC[C@]43C)[C@@H]2C1`, the Activity in assay [1] is recorded as 94.99%; in [2] it was 84.84%.
For `CC(C)C[C@H](N)C(=O)NCC(=O)NCCNC(=O)[C@]12CCC(C)(C)C[C@H]1C1=CC[C@@H]3[C@@]4(C)Cc5nccnc5[C@@](C)(CO)[C@@H]4CC[C@@]3(C)[C@]1(C)CC2` the same measures were 98.91% and 96.68%.
For `CC1(C)CC[C@]2(C(=O)OCC(=O)OCc3ncco3)CC[C@]3(C)C(=CC[C@@H]4[C@@]5(C)Cc6nccnc6[C@@](C)(CO)[C@@H]5CC[C@]43C)[C@@H]2C1`, the figures for the Activity in [1] and in assay [2] were 62.38% and 26.03%, respectively.
In the same order, the values of `COC(=O)[C@H](Cc1ccccc1)NC(=O)COC(=O)[C@]12CCC(C)(C)C[C@H]1C1=CC[C@@H]3[C@@]4(C)Cc5nccnc5[C@@](C)(CO)[C@@H]4CC[C@@]3(C)[C@]1(C)CC2` are 90.77% and 38.69%.
`CC1(C)CC[C@]2(C(=O)NCC(=O)OCCOCCOCCOCCO)CC[C@]3(C)C(=CC[C@@H]4[C@@]5(C)Cc6nccnc6[C@@](C)(CO)[C@@H]5CC[C@]43C)[C@@H]2C1`: the Activity was found to be 90.96% in assay [1] and 83.46% in [2].
As to `CC1(C)CC[C@]2(C(=O)NCCCC(=O)OCCOCCOCCOCCO)CC[C@]3(C)C(=CC[C@@H]4[C@@]5(C)Cc6nccnc6[C@@](C)(CO)[C@@H]5CC[C@]43C)[C@@H]2C1`, the Activity stood at 93.67% in assay [1] and 28.96% in assay [2].
`C[C@H](N)C(=O)N[C@@H](C)C(=O)NCCNC(=O)[C@]12CCC(C)(C)C[C@H]1C1=CC[C@@H]3[C@@]4(C)Cc5nccnc5[C@@](C)(CO)[C@@H]4CC[C@@]3(C)[C@]1(C)CC2`: the values for the Activity in assay [1] and in [2] were 92.74% and 28.53%, respectively.
Turning to `CC1(C)CC[C@]2(C(=O)NCC(=O)OCCOCCOCCOCCOCCOCCOCCOCCOCCO)CC[C@]3(C)C(=CC[C@@H]4[C@@]5(C)Cc6nccnc6[C@@](C)(CO)[C@@H]5CC[C@]43C)[C@@H]2C1`, the Activity in assay [1] turned out to be 79.04%; in assay [2], 74.02%.
For `CC1(C)CC[C@]2(C(=O)OCC(=O)OCc3cnccn3)CC[C@]3(C)C(=CC[C@@H]4[C@@]5(C)Cc6nccnc6[C@@](C)(CO)[C@@H]5CC[C@]43C)[C@@H]2C1`, the Activity in [1] is given as 121.45%; in [2], 53.78%.
`CC1(C)CC[C@]2(C(=O)NCCCC(=O)OCCOCCOCCOCCOCCO)CC[C@]3(C)C(=CC[C@@H]4[C@@]5(C)Cc6nccnc6[C@@](C)(CO)[C@@H]5CC[C@]43C)[C@@H]2C1`: the Activity in assay [1] is given as 94.86%; in assay [2], 27.02%.
For `COC(=O)C[C@H](NC(=O)COC(=O)[C@]12CCC(C)(C)C[C@H]1C1=CC[C@@H]3[C@@]4(C)Cc5nccnc5[C@@](C)(CO)[C@@H]4CC[C@@]3(C)[C@]1(C)CC2)C(=O)OC` the same measures were 79.2% and 35.97%.
As to `CC1(C)CC[C@]2(C(=O)OCC(=O)OCC3CCO3)CC[C@]3(C)C(=CC[C@@H]4[C@@]5(C)Cc6nccnc6[C@@](C)(CO)[C@@H]5CC[C@]43C)[C@@H]2C1` (stereo partly specified), the values for the Activity in [1] and in assay [2] were 106.82% and 48.06%, respectively.
Regarding `CC1(C)CC[C@]2(C(=O)NCCCC(=O)OCCOCCO)CC[C@]3(C)C(=CC[C@@H]4[C@@]5(C)Cc6nccnc6[C@@](C)(CO)[C@@H]5CC[C@]43C)[C@@H]2C1`, the figures for the Activity in [1] and in [2] were 91.43% and 70.13%, respectively.
Take `COc1cc2c(cc1OC)CN(CCc1ccc(NC(=O)c3cc(OC)c(OC)cc3NC(=O)c3cnc4ccccc4c3)cc1)CC2`: the “fold change (FC)” value in assay [3] was found to be 391.47; in assay [4] it was 30.99; in assay [5], 824.4; in assay [6], 744.78; in assay [7], 1523.35; in [8] it was 16.78.
For `CC1(C)CC[C@]2(C(=O)NCCNC(=O)CNC(=O)CN)CC[C@]3(C)C(=CC[C@@H]4[C@@]5(C)Cc6nccnc6[C@@](C)(CO)[C@@H]5CC[C@]43C)[C@@H]2C1`, the Activity stood at 91.41% in assay [1] and 87.67% in assay [2].
`CC1(C)CC[C@]2(C(=O)NCC(=O)OCCOCCOCCO)CC[C@]3(C)C(=CC[C@@H]4[C@@]5(C)Cc6nccnc6[C@@](C)(CO)[C@@H]5CC[C@]43C)[C@@H]2C1`: the Activity in assay [1] is recorded as 86.82%; in assay [2], 67.88%.
In the same order, the values of `COC(=O)[C@H](CC(C)C)NC(=O)COC(=O)[C@]12CCC(C)(C)C[C@H]1C1=CC[C@@H]3[C@@]4(C)Cc5nccnc5[C@@](C)(CO)[C@@H]4CC[C@@]3(C)[C@]1(C)CC2` are 85.1% and 38.41%.
Consider `COC(=O)CC[C@H](NC(=O)COC(=O)[C@]12CCC(C)(C)C[C@H]1C1=CC[C@@H]3[C@@]4(C)Cc5nccnc5[C@@](C)(CO)[C@@H]4CC[C@@]3(C)[C@]1(C)CC2)C(=O)OC`, for which the Activity in assay [1] was found to be 92.53%; in assay [2], 40.07%.
With `CC1(C)CC[C@]2(C(=O)OCC(=O)OCc3nccs3)CC[C@]3(C)C(=CC[C@@H]4[C@@]5(C)Cc6nccnc6[C@@](C)(CO)[C@@H]5CC[C@]43C)[C@@H]2C1`, the Activity in assay [1] came out at 105.92%; in assay [2], 43.84%.
`CC1(C)CC[C@]2(C(=O)OCC(=O)NCc3ncccn3)CC[C@]3(C)C(=CC[C@@H]4[C@@]5(C)Cc6nccnc6[C@@](C)(CO)[C@@H]5CC[C@]43C)[C@@H]2C1`: the Activity came out at 90.35% in [1] and 39.38% in assay [2].
Take `CC1(C)CC[C@]2(C(=O)OCC(=O)NCc3ccccn3)CC[C@]3(C)C(=CC[C@@H]4[C@@]5(C)Cc6nccnc6[C@@](C)(CO)[C@@H]5CC[C@]43C)[C@@H]2C1`: the Activity is reported as 82.98% in assay [1] and 33.22% in assay [2].
In the same order, the values of `CC1(C)CC[C@]2(C(=O)OCC(=O)NCc3cnccn3)CC[C@]3(C)C(=CC[C@@H]4[C@@]5(C)Cc6nccnc6[C@@](C)(CO)[C@@H]5CC[C@]43C)[C@@H]2C1` are 97.94% and 40.44%.
For the molecule `CC1(C)CC[C@]2(C(=O)NCC(=O)OCCOCCOCCOCCOCCO)CC[C@]3(C)C(=CC[C@@H]4[C@@]5(C)Cc6nccnc6[C@@](C)(CO)[C@@H]5CC[C@]43C)[C@@H]2C1`, the Activity in [1] came to 77.18%; in assay [2], 78.98%.
Turning to `CC[C@]1(O)C[C@H]2CN(CCc3c([nH]c4ccccc34)[C@@](C(=O)OC)(c3cc4c(cc3OC)N(C=O)[C@H]3[C@@](O)(C(=O)OC)[C@H](OC(C)=O)[C@]5(CC)C=CCN6CC[C@]43[C@@H]65)C2)C1` [VINCRISTINE], the IC50 in assay [9] is 469 nM.
As to `CC1(C)CC[C@]2(C(=O)NCCCC(=O)OCCOCCOCCO)CC[C@]3(C)C(=CC[C@@H]4[C@@]5(C)Cc6nccnc6[C@@](C)(CO)[C@@H]5CC[C@]43C)[C@@H]2C1`, the Activity in assay [1] is recorded as 96.02%; in assay [2], 63.88%.
With `CC1(C)CC[C@]2(C(=O)OCC(=O)OCc3ccncc3)CC[C@]3(C)C(=CC[C@@H]4[C@@]5(C)Cc6nccnc6[C@@](C)(CO)[C@@H]5CC[C@]43C)[C@@H]2C1`, the Activity in assay [1] was 109.15%; in assay [2], 46.31%.
For `CC(C)[C@H](N)C(=O)NCC(=O)NCCNC(=O)[C@]12CCC(C)(C)C[C@H]1C1=CC[C@@H]3[C@@]4(C)Cc5nccnc5[C@@](C)(CO)[C@@H]4CC[C@@]3(C)[C@]1(C)CC2`, the Activity in assay [1] worked out at 97.4%; in assay [2] it was 27.74%.
